“Also recorded” adds a separate entry of the source.
Legend:
anaesthetized rat [1] = assay: LPS-induced hypotension and mortality in the anaesthetized rat; assay type: in vivo, Male Sprague Dawley rats
Procedure: (§1) Anaesthetized Rat Model. Male Sprague Dawley rats (250-300 g) were anaesthetized with inactin (100 mg/Kg intraperitoneally). The trachea was cannulated to facilitate respiration and body temperature was maintained at 37° C. by means of a heating pad. The left femoral vein was cannulated for administration of drugs. The left femoral artery was cannulated and connected to a pressure transducer to allow for the monitoring of blood pressure. Lipopolysaccharide from E. coli (LPS; 4 mg/Kg, serotype 0111:B4) was administered as a bolus intravenous injection at a volume of 0.3 ml. Control animals received saline at the same volume and by the same route. In experiments involving blood samples, such blood samples were withdrawn from the arterial cannula.
Intravenous injection of LPS (4 mg/Kg) in rats led to a profound fall in blood pressure associated with a high mortality rate (99±5% mortality at 9 hours, n=10, FIG. 3). Furthermore, the plasma levels of norepinephrine as well as the adrenochromes increased after LPS treatment (FIGS. 4a,b,c; n=10). Levels of the catecholamines and of the adrenochromes could not be evaluated at the 9 h timepoint (survival rate at this point was 1%, n=10).
(FIG. 3; n=10). Inhibition of hypotension by M40403 was associated with increased levels of catecholamines (FIGS. 4a and b) and concommittant decrease (FIG. 4c; n=10) in plasma levels of the adrenochromes, the reaction products of O2^− and these catecholamines. In addition, when the administration of M40403 was postponed until 5 hours post LPS in this model the severe hypotensive phase of this condition was reversed (FIG. 3; n=10).
When 15 mg/Kg of 5,10,15,20-tetrakis (2,4,6-trimethyl-3,5-disulfonatophenyl)-porphyrinato iron (III) (FeTMPS) was administered (i.v bolus injection 1 hour after LPS), the development of hypotension was prevented.

[2] = Plasma catecholamine and adrenochrome concentrations after LPS; assay type: in vivo, Male Sprague Dawley rats; conditions: M40403 0.25 mg/Kg/h given at 1 h post LPS 4 mg/Kg i.v.; n=10
Procedure: as §1, with “In experiments involving blood samples, such blood samples were withdrawn from the arterial cannula.” left out
Catecholamine measurements. Catecholamines in test tube samples or plasma samples were identified and quantified by high pressure liquid chromatography with electrochemical detection (HPLC-EC). […] The HPLC system is coupled to a PS-90 computer with which chromatograms were recorded and analyzed with Varian Star workstation software.
Adrenochrome measurements. The detection and quantification of the sum of the noradrenochrome and adrenochrome was carried out using an HPLC method utilising a Vydac C18 Pharmaceutical 4.6×250 mm column and with a 5% acetonitrile+95% SDS (10 mM) mobile phase (5 min elution), then 40% acetonitrile with 60% SDS plus 0.1% TFA (5 min elution) mobile phase, all eluted at […]. […]

anaesthetized rat [3] = assay: Pressor effect of norepinephrine incubates on MAP in the anaesthetized rat; assay type: in vivo, Male Sprague Dawley rats; conditions: n=6
Procedure: as §1
Male Sprague Dawley rats (250-300 g, 6 rats per group) were anaesthetized and prepared according to the methods of Example 1. 0.5 mg/Kg of norepinephrine was administered as an intravenous (i.v) bolus injection through the left femoral vein. Animals in a control group received saline at the same volume and by the same route. The left femoral artery was cannulated and connected to a pressure transducer to allow for the monitoring of blood pressure during the experiment. The change in the blood pressure of the animals was compared to the blood pressure of animals in the control group. The results of the tests can be found in FIG. 1. Norepinephrine raised the MAP of the rats by 34±3.7 mmHg (FIG. 1b; n=6). […] When SOD mimetic M40403 was included with HX/XO in the incubation mixture, the vasopressor actions of were protected as shown by its ability to restore MAP back to near control values (38±3.6 mmHg) (FIG. 1b; n=6).

[4] = test system: O2− generated by hypoxanthine/xanthine oxidase (HX/XO); assay: Deactivation of catecholamines by hypoxanthine/xanthine oxidase superoxide generating system, HPLC detection; assay type: biochemical; conditions: HX 2 mM / XO 1 U/ml, n=6; for chemical detection of the catecholamines by HPLC after exposure to HX/XO: no SOD mimetic
Procedure: Catecholamine measurements. Catecholamines in test tube samples or plasma samples were identified and quantified by high pressure liquid chromatography with electrochemical detection (HPLC-EC). The system consists of a Varian model 2510 solvent delivery system and a model 9090 autosampler (Varian, Walnut Creek, Calif.) coupled to a C18 column and an ESA Coulochem II detector. Separations were performed isocratically using a filtered and degassed mobile phase consisting of 10% methanol, 0.1 M sodium phosphate, 0.2 mM sodium octyl sulfate and 0.1 mM EDTA, adjusted to pH 2.8 with phosphoric acid. The HPLC system is coupled to a PS-90 computer with which chromatograms were recorded and analyzed with Varian Star workstation software.
Hypoxanthine (HX;2 mM)/xanthine oxidase (XO; 1 U/ml) results in the generation of O2^− in the ratio of 2 molecules of O2^− to every one molecule of HX used.

anaesthetized rat [5] = assay: LPS-induced hyporeactivity to exogenous norepinephrine in the anaesthetized rat; assay type: in vivo, Male Sprague Dawley rats
Procedure: as §1
Injection of E. coli lipopolysaccharide (LPS) to rats leads to the development of hyporeactivity to exogeneously administered norepinephrine which typically occurs in the first two hours. Male Sprague Dawley rats (250-300 g, number in group) were anaesthetized and prepared according to the methods of Example 1. Increasing dosages of norepinephrine (0.1, 0.5 and 1 mg/Kg) were given as intravenous bolus injections. Animals in a control group received saline at the same volume and by the same route. The left femoral artery was cannulated and connected to a pressure transducer to allow for the monitoring of blood pressure during the experiment. The change in the blood pressure of the animals was compared to the blood pressure of animals in the control group. […] Pressor responses to norepinephrine in rats not treated with LPS were unaffected by the SOD mimetic M40403 (FIG. 2; n=6).
Injection of E. coli lipopolysaccharide (LPS) to rats leads to the development of hyporeactivity to exogeneously administered norepinephrine which typically occurs in the first two hours. Male Sprague Dawley rats (250-300 g, number in group) were anaesthetised and prepared according to the methods of Example 1. Increasing dosages of norepinephrine (0.1, 0.5 and 1 mg/Kg) were given as intravenous bolus injections. Animals in a control group received saline at the same volume and by the same route. The left femoral artery was cannulated and connected to a pressure transducer to allow for the monitoring of blood pressure during the experiment. The change in the blood pressure of the animals was compared to the blood pressure of animals in the control group.

[Cl-].[Cl-].[Mn+2].c1cc2nc(c1)CN[C@@H]1CCCC[C@H]1NCCN[C@@H]1CCCC[C@H]1NC2 [M40403]
fall in MAP (severe hypotensive phase) after LPS (anaesthetized rat [1]; M40403 0.25 mg/Kg administered at 5 h post LPS 4 mg/Kg i.v., n=10): reverses
survival by 9 h (anaesthetized rat [1]; M40403 0.25 mg/Kg/h i.v. infusion 1 hour post LPS 4 mg/Kg, n=10): 99±2%
fall in MAP (development of hypotension) after LPS (anaesthetized rat [1]; M40403 0.25 mg/Kg/h i.v. infusion from 1 h post LPS 4 mg/Kg i.v., n=10): prevents
plasma concentrations of adrenochromes versus LPS alone [2]: decrease; also recorded: significantly lower
plasma concentrations of epinephrine and norepinephrine versus LPS alone [2]: increased; also recorded: significantly higher
ability of norepinephrine to increase MAP after incubation with HX/XO (anaesthetized rat [3]; M40403 in the incubate, incubation 5 min, norepinephrine 0.5 mg/Kg bolus i.v.): preserved
increase in MAP by norepinephrine incubated with HX/XO plus M40403 (anaesthetized rat [3]; norepinephrine 0.5 mg/Kg i.v. bolus, M40403 included in HX/XO incubation mixture): 38±3.6 mmHg
reduction of chemical detection (HPLC) of norepinephrine and epinephrine after incubation with HX/XO ([4]; M40403 10^−6 M, incubation 5 min): prevented
pressor responses to norepinephrine two hours after LPS (anaesthetized rat [5]; M40403 0.25 mg/Kg, 15 min i.v. infusion 1 hour after LPS 4 mg/Kg, norepinephrine 0.1, 0.5 and 1 mg/Kg): restored
hyporeactivity to norepinephrine after LPS (anaesthetized rat [5]; M40403 1 mg/Kg, LPS 4 mg/Kg, norepinephrine 0.1-1 mg/Kg, n=6): reversed
reactivity (pressor responses) to norepinephrine in rats not treated with LPS (anaesthetized rat [5]; saline treated rats, M40403, n=6): unaffected; also recorded: not affected

NC[C@H](O)c1ccc(O)c(O)c1 [norepinephrine, reference compound]
increase in MAP by norepinephrine after incubation with HX/XO (anaesthetized rat [3]; norepinephrine 0.5 mg/Kg i.v. bolus, incubated with HX/XO): 17±2.5 mmHg
increase in MAP by norepinephrine (anaesthetized rat [3]; norepinephrine 0.5 mg/Kg i.v. bolus, not incubated): 34±3.7 mmHg
chemical detection of the catecholamines by HPLC after exposure to HX/XO [4]: significant decreases

CNC[C@H](O)c1ccc(O)c(O)c1 [epinephrine]
chemical detection of the catecholamines by HPLC after exposure to HX/XO [4]: significant decreases

5,10,15,20-tetrakis (2,4,6-trimethyl-3,5-disulfonatophenyl)-porphyrinato iron (III) [FeTMPS]
fall in MAP after LPS, therapeutic treatment (anaesthetized rat [1]; FeTMPS 10 mg/Kg/h at 1 h post LPS 4 mg/Kg i.v. (FIG. 7)): prevents
fall in MAP after LPS, prophylactic treatment (anaesthetized rat [1]; FeTMPS 10 mg/Kg/h at 1 h post LPS 4 mg/Kg i.v. (FIG. 8)): prevents
development of hypotension after LPS (anaesthetized rat [1]; FeTMPS 15 mg/Kg i.v. bolus injection 1 hour after LPS): prevented
hyporeactivity to exogenous norepinephrine after LPS (anaesthetized rat [5]; FeTMPS 15 mg/kg given at 1 h post LPS 4 mg/Kg): prevented; also recorded: reversed
reactivity to norepinephrine in saline treated rats (anaesthetized rat [5]; FeTMPS, saline treated rats, n=6): not significantly affected

From patent publication US20040132706A1, “Composition comprising a catalyst for the dismutation of superoxide and use of the composition for preventing and treating hypotension” (priority 2003, published 2004)
